Measurements as given in paper PMC8699473, “An Easily Expandable Multi-Drug LC-MS Assay for the Simultaneous Quantification of 57 Oral Antitumor Drugs in Human Plasma” (Cancers, 2021).

Legend:
[1] = Freeze-thaw stability in spiked pooled human plasma; assay type: physicochemical
[2] = Short-term stability in spiked pooled human plasma (bench-top, 4 °C, 56 °C)
[3] = Long-term stability in spiked pooled human plasma
[4] = Autosampler stability of ready for injection samples; assay type: physicochemical, human
[5] = set-up: method as in supplement references [1-55] as printed per drug; conditions: minimum steady-state blood plasma concentration after multiple dose administration; ref supplement references [1-55] per drug; cited from earlier work

## COC(=O)c1ccc2c(c1)NC(=O)/C2=C(\Nc1ccc(N(C)C(=O)CN2CCN(C)CC2)cc1)c1ccccc1 [Nintedanib]
[1]; validation standard 2xLLOV
  Freeze-Thaw Accuracy [%]: 103.0%
[1]; validation standard LLOV
  Freeze-Thaw Accuracy [%]: 93.2%
[1]; validation standard MOV
  Freeze-Thaw Accuracy [%]: 96.9%
[1]; validation standard ULOV
  Freeze-Thaw Accuracy [%]: 95.8%
[2]; validation standard 2xLLOV
  Short-time stability (1h, 56°C) Accuracy [%]: 48.8%
  Short-time stability (24h, 4°C, without daylight) Accuracy [%]: 103.5%
  Short-time stability (24h, RT, with daylight) Accuracy [%]: 102.5%
  Short-time stability (24h, RT, without daylight) Accuracy [%]: 105.4%
[2]; validation standard LLOV
  Short-time stability (1h, 56°C) Accuracy [%]: 56.0%
  Short-time stability (24h, 4°C, without daylight) Accuracy [%]: 96.7%
  Short-time stability (24h, RT, with daylight) Accuracy [%]: 99.4%
  Short-time stability (24h, RT, without daylight) Accuracy [%]: 96.1%
[2]; validation standard MOV
  Short-time stability (1h, 56°C) Accuracy [%]: 51.2%
  Short-time stability (24h, 4°C, without daylight) Accuracy [%]: 100.1%
  Short-time stability (24h, RT, with daylight) Accuracy [%]: 104.3%
  Short-time stability (24h, RT, without daylight) Accuracy [%]: 103.0%
[2]; validation standard ULOV
  Short-time stability (1h, 56°C) Accuracy [%]: 43.9%
  Short-time stability (24h, 4°C, without daylight) Accuracy [%]: 88.8%
  Short-time stability (24h, RT, with daylight) Accuracy [%]: 105.8%
  Short-time stability (24h, RT, without daylight) Accuracy [%]: 102.1%
[3]; validation standard 2xLLOV
  Long-term stability, 1 month, -20°C Accuracy [%]: 97.2%
  Long-term stability, 1 month, -80°C Accuracy [%]: 98.9%
  Long-term stability, 2 month, -20°C Accuracy [%]: 103.8%
  Long-term stability, 2 month, -80°C Accuracy [%]: 99.7%
  Long-term stability, 3 month, -20°C Accuracy [%]: 90.3%
  Long-term stability, 3 month, -80°C Accuracy [%]: 91.1%
  Long-term stability, 6 weeks, 4°C, without daylight Accuracy [%]: 94.4%
[3]; validation standard LLOV
  Long-term stability, 1 month, -20°C Accuracy [%]: 102.0%
  Long-term stability, 1 month, -80°C Accuracy [%]: 102.1%
  Long-term stability, 2 month, -20°C Accuracy [%]: 96.9%
  Long-term stability, 2 month, -80°C Accuracy [%]: 94.3%
  Long-term stability, 3 month, -20°C Accuracy [%]: 88.2%
  Long-term stability, 3 month, -80°C Accuracy [%]: 88.3%
  Long-term stability, 6 weeks, 4°C, without daylight Accuracy [%]: 86.6%
[3]; validation standard MOV
  Long-term stability, 1 month, -20°C Accuracy [%]: 95.5%
  Long-term stability, 1 month, -80°C Accuracy [%]: 91.4%
  Long-term stability, 2 month, -20°C Accuracy [%]: 98.9%
  Long-term stability, 2 month, -80°C Accuracy [%]: 99.7%
  Long-term stability, 3 month, -20°C Accuracy [%]: 97.2%
  Long-term stability, 3 month, -80°C Accuracy [%]: 94.7%
  Long-term stability, 6 weeks, 4°C, without daylight Accuracy [%]: 94.4%
[3]; validation standard ULOV
  Long-term stability, 1 month, -20°C Accuracy [%]: 94.5%
  Long-term stability, 1 month, -80°C Accuracy [%]: 87.4%
  Long-term stability, 2 month, -20°C Accuracy [%]: 97.0%
  Long-term stability, 2 month, -80°C Accuracy [%]: 94.8%
  Long-term stability, 3 month, -20°C Accuracy [%]: 92.9%
  Long-term stability, 3 month, -80°C Accuracy [%]: 91.8%
  Long-term stability, 6 weeks, 4°C, without daylight Accuracy [%]: 85.9%
[4]; validation standard 2xLLOV
  Autosampler (24h, 4°C) Accuracy [%]: 104.2%
  Autosampler (72h, 4°C) Accuracy [%]: 104.4%
[4]; validation standard LLOV
  Autosampler (24h, 4°C) Accuracy [%]: 91.3%
  Autosampler (72h, 4°C) Accuracy [%]: 99.8%
[4]; validation standard MOV
  Autosampler (24h, 4°C) Accuracy [%]: 102.7%
  Autosampler (72h, 4°C) Accuracy [%]: 104.6%
[4]; validation standard ULOV
  Autosampler (24h, 4°C) Accuracy [%]: 102.7%
  Autosampler (72h, 4°C) Accuracy [%]: 101.4%
[5]
  cmin: 13.1 ng/mL

## NC(=O)c1cccc2cn(-c3ccc([C@@H]4CCCNC4)cc3)nc12 [Niraparib]
[1]; validation standard 2xLLOV
  Freeze-Thaw Accuracy [%]: 96.8%
[1]; validation standard LLOV
  Freeze-Thaw Accuracy [%]: 98.0%
[1]; validation standard MOV
  Freeze-Thaw Accuracy [%]: 96.5%
[1]; validation standard ULOV
  Freeze-Thaw Accuracy [%]: 97.1%
[2]; validation standard 2xLLOV
  Short-time stability (1h, 56°C) Accuracy [%]: 53.4%
  Short-time stability (24h, 4°C, without daylight) Accuracy [%]: 96.9%
  Short-time stability (24h, RT, with daylight) Accuracy [%]: 95.2%
  Short-time stability (24h, RT, without daylight) Accuracy [%]: 93.8%
[2]; validation standard LLOV
  Short-time stability (1h, 56°C) Accuracy [%]: 46.8%
  Short-time stability (24h, 4°C, without daylight) Accuracy [%]: 93.8%
  Short-time stability (24h, RT, with daylight) Accuracy [%]: 92.3%
  Short-time stability (24h, RT, without daylight) Accuracy [%]: 91.9%
[2]; validation standard MOV
  Short-time stability (1h, 56°C) Accuracy [%]: 51.1%
  Short-time stability (24h, 4°C, without daylight) Accuracy [%]: 100.2%
  Short-time stability (24h, RT, with daylight) Accuracy [%]: 97.6%
  Short-time stability (24h, RT, without daylight) Accuracy [%]: 96.5%
[2]; validation standard ULOV
  Short-time stability (1h, 56°C) Accuracy [%]: 43.8%
  Short-time stability (24h, 4°C, without daylight) Accuracy [%]: 92.7%
  Short-time stability (24h, RT, with daylight) Accuracy [%]: 95.8%
  Short-time stability (24h, RT, without daylight) Accuracy [%]: 94.0%
[3]; validation standard 2xLLOV
  Long-term stability, 1 month, -20°C Accuracy [%]: 101.4%
  Long-term stability, 1 month, -80°C Accuracy [%]: 94.5%
  Long-term stability, 2 month, -20°C Accuracy [%]: 104.1%
  Long-term stability, 2 month, -80°C Accuracy [%]: 106.0%
  Long-term stability, 3 month, -20°C Accuracy [%]: 99.8%
  Long-term stability, 3 month, -80°C Accuracy [%]: 95.7%
  Long-term stability, 6 weeks, 4°C, without daylight Accuracy [%]: 96.1%
[3]; validation standard LLOV
  Long-term stability, 1 month, -20°C Accuracy [%]: 97.8%
  Long-term stability, 1 month, -80°C Accuracy [%]: 93.4%
  Long-term stability, 2 month, -20°C Accuracy [%]: 101.8%
  Long-term stability, 2 month, -80°C Accuracy [%]: 102.4%
  Long-term stability, 3 month, -20°C Accuracy [%]: 96.1%
  Long-term stability, 3 month, -80°C Accuracy [%]: 95.4%
  Long-term stability, 6 weeks, 4°C, without daylight Accuracy [%]: 94.3%
[3]; validation standard MOV
  Long-term stability, 1 month, -20°C Accuracy [%]: 99.8%
  Long-term stability, 1 month, -80°C Accuracy [%]: 99.6%
  Long-term stability, 2 month, -20°C Accuracy [%]: 105.3%
  Long-term stability, 2 month, -80°C Accuracy [%]: 103.9%
  Long-term stability, 3 month, -20°C Accuracy [%]: 102.2%
  Long-term stability, 3 month, -80°C Accuracy [%]: 100.4%
  Long-term stability, 6 weeks, 4°C, without daylight Accuracy [%]: 104.5%
[3]; validation standard ULOV
  Long-term stability, 1 month, -20°C Accuracy [%]: 100.8%
  Long-term stability, 1 month, -80°C Accuracy [%]: 98.5%
  Long-term stability, 2 month, -20°C Accuracy [%]: 103.3%
  Long-term stability, 2 month, -80°C Accuracy [%]: 104.1%
  Long-term stability, 3 month, -20°C Accuracy [%]: 100.4%
  Long-term stability, 3 month, -80°C Accuracy [%]: 101.8%
  Long-term stability, 6 weeks, 4°C, without daylight Accuracy [%]: 96.4%
[4]; validation standard 2xLLOV
  Autosampler (24h, 4°C) Accuracy [%]: 103.0%
  Autosampler (72h, 4°C) Accuracy [%]: 99.6%
[4]; validation standard LLOV
  Autosampler (24h, 4°C) Accuracy [%]: 96.8%
  Autosampler (72h, 4°C) Accuracy [%]: 96.3%
[4]; validation standard MOV
  Autosampler (24h, 4°C) Accuracy [%]: 104.6%
  Autosampler (72h, 4°C) Accuracy [%]: 100.5%
[4]; validation standard ULOV
  Autosampler (24h, 4°C) Accuracy [%]: 100.8%
  Autosampler (72h, 4°C) Accuracy [%]: 100.1%
[5]
  cmin: 649 ng/mL
